From patent US9845482B2, “Compositions and methods for enhancing bioenergetic status in female germ cells” (The General Hospital Corporation, priority 2011, dated 2017)
“Also recorded” adds a separate entry of the source. Read-outs that look alike come from different tables or passages of the source.

Experiments:
OSCs from mice = assay: Screen of mouse OSCs for compounds that enhance mitochondrial function (mtDNA, ATP, mitochondrial mass, membrane potential, gene expression); format: cell-based; conditions: 24 hours
Description: Female infertility due to chemotherapy, aging and premature ovarian failure (POF) is due in part to a decline in mitochondrial function in oocytes and OSCs. Accordingly, OSCs from mice were used to screen for small compounds that enhance mitochondrial function (“bioenergetic status”) in female germline cells. Assays for enhancing mitochondrial function included mtDNA content, ATP, NAD+/NADH, mitochondrial mass, mitochondrial membrane potential, and gene expression of known mitochondrial mass regulators and electron transport chain components.
All the compounds were dissolved in DMSO. For screening purposes the cells were treated with the vehicle (0.001% DMSO) or with 25 or 50 μM of each compound (except for berberine, which the concentrations used for the screen were 5 μM and 25 μM) for 24 hours. For validation of the top 6 hits, cells were treated with vehicle (0.001% DMSO) or either 5 or 25 μM of each compound for 24 hours. For the gene expression profile, the cells were treated with the concentration that was considered to work better in the previous validation assays.
Mitochondrial membrane potential was measured with a fluorescent probe, Tetramethylrhodamine methyl ester (TMRM) (Sigma) as described before (Rolo A. P. Biochim. Biophys. Acta 2003 1637: 127-132). Briefly the cells were loaded with 6.6 μM TMRM in HBSS buffer at 37° C. for 15 minutes in the dark. The supernatant was then aspirated, and the cells returned to the original volume with KHH. TMRM is a membrane-permeable cationic fluorophore that accumulates electrophoretically in mitochondria in proportion to their mitochondrial membrane potential (Ehrenberg B. V. et al. Biophys. J. 1988 53:785-794). Cell suspensions (200 μl containing 10^5 cells) were loaded into 96-well plates and fluorescence measured using excitation and emission wavelengths of 485 and 590 nm, respectively. Mitochondrial membrane potential was estimated, taking into account the complete depolarization caused by carbonyl cyanide p-(trifluoromethoxy)phenylhydrazone (FCCP).
For mtDNA analysis, total DNA was extracted with DNeasy blood and tissue kit (QIAGEN). mtDNA was amplified using primers specific for the mitochondrial cytochrome c oxidase subunit 2 (COX2) gene and normalized to genomic DNA by amplification of the ribosomal protein s18 (rps18) nuclear gene. Primers were designed using the IDT software (IDT).
ATP content was measured using a luciferase-based assay with a commercial kit according to the manufacturer's instructions (Roche Applied Science, Penzberg, Germany) and normalized to protein content in each sample.
Mitochondrial mass was evaluated using the fluorescent probe N-nonyl acridine orange (NAO), briefly the cells were incubated in culture media containing 10 nM of NAO for 30 minutes at 37° C. in the dark. The cells were then trypsinized and resuspended in culture media without NAO. The NAO fluorescence intensity was then determined by flow cytometry on the FACSCALIBUR® (BD Biosciences, San Jose, Calif., USA) using the 488 nm laser.
For gene expression analysis, RNA from skeletal muscle tissue and C2C12 cells were extracted with RNeasy mini kit (QIAGEN) according to the instructions and quantified using the NanoDrop 1000 spectrophotometer (Thermo Scientific). cDNA was synthesized with the iSCRIP cDNA synthesis kit (BioRad) using 200 ng of RNA. Quantitative RT-PCR reactions were performed using 1 μM of primers and LIGHTCYCLER® 480 SYBR® Green Master (Roche Applied Science, Penzberg, Germany) on an LIGHTCYCLER® 480 detection system (Roche Applied Science, Penzberg, Germany). Calculations were performed by a comparative method (2-ΔΔCT) using actin as an internal control. Primers were designed using the IDT software (IDT).

Mouse OSCs = assay: NAD+ and NADH levels in mouse OSCs treated with mitochondrial enhancers; format: cell-based; conditions: 24 hours
Experimental: FIG. 35 depicts levels of NAD+ (A) and NADH (B) in OSCs treated with mitochondrial enhancers. Mouse OSCs maintained in culture (Zou et al., Nat Cell Biol 2009 11:631-636) were exposed to the indicated test compounds for 24 hours and then assessed for levels of NAD+ and NADH. Female infertility due to chemotherapy, aging and premature ovarian failure (POF) is due in part to a decline in mitochondrial function in oocytes and OSCs. Accordingly, OSCs from mice were used to screen for small compounds that enhance mitochondrial function (“bioenergetic status”) in female germline cells. Assays for enhancing mitochondrial function included mtDNA content, ATP, NAD+/NADH, mitochondrial mass, mitochondrial membrane potential, and gene expression of known mitochondrial mass regulators and electron transport chain components. All the compounds were dissolved in DMSO. For screening purposes the cells were treated with the vehicle (0.001% DMSO) or with 25 or 50 μM of each compound (except for berberine, which the concentrations used for the screen were 5 μM and 25 μM) for 24 hours. For validation of the top 6 hits, cells were treated with vehicle (0.001% DMSO) or either 5 or 25 μM of each compound for 24 hours. For the gene expression profile, the cells were treated with the concentration that was considered to work better in the previous validation assays.

[1] = test system: murine oogonial stem cells (OSCs); assay: NAD+/NADH quantitation in murine OSCs treated with NMN; format: cell-based; conditions: NMN added at 12 h and 6 h prior to analysis
Experimental: FIGS. 39A-39C are graphs showing that nicotinamide mononucleotides raise cellular NAD^+ and NAD+/NADH in murine oogonial stem cells (OSCs). Oogonial stem cells were isolated from dissociated ovaries using a FACS based sorting protocol to purify OSCs free of contaminating oocytes (see Example 1). Cells were maintained in culture medium consisted of minimum essential medium α (MEMα), 10% FBS, 1 mM sodium pyruvate, 1 mM non-essential amino acids, 2 mM L-glutamine, 0.1 mM β-mercaptoethanol (Sigma Aldrich Corporation, St. Louis, Mo., USA), 10 ng/ml-1 LIF (Millipore), 1× N-2 MAX Media Supplement (R&D) 10 ng/ml EGF (Epidermal growth factor, Recombinant human; Gibco Division of ThermoFisher Scientific, Waltham, Mass., USA), 40 ng/ml human GDNF (glial cell line-derived neurotrophic factor; R&D systems), 1 ng/ml human bFGF (basic fibroblast growth factor; Gibco Division of ThermoFisher Scientific, Waltham, Mass., USA).
Oogonial stem cells were isolated from dissociated ovaries using a FACS based sorting protocol to purify OSCs free of contaminating oocytes (for details, see Example 1), Cells were maintained in culture medium consisted of minimum essential medium α (MEMα), 10% FBS, 1 mM sodium pyruvate, 1 mM […], 2 mM L-1-glutamine, 0.1 mM β-mercaptoethanol (Sigma), 10 ng/ml-1 LIF (Millipore), 1× N-2 MAX Media Supplement (R&D) 10 ng/ml EGF (Epidermal growth factor, Recombinant human; Gibco Division of Thermofisher Scientific, Waltham, Mass., USA), 40 ng/nil human GDNF (glial cell line-derived neurotrophic factor; R&D systems), 1 ng/ml human bFGF (basic fibroblast growth factor; Gibco Division of Thermofisher Scientific, Waltham, Mass., USA)
For all experiments 25,000 cells were plated in each well of a 24 well plate. Cells were allowed to attach for twenty-four hours and then were treated with NMN (β-Nicotinamide mononucleotide; Sigma). Unless otherwise stated, NMN was added twice to the cells, first at twelve hours and then again at six hours prior to analysis (12+6 h). Mitochondrial DNA Copy number was analysed as follows. Total cellular DNA was isolated from cells at the indicated time points using DNeasy Blood & Tissue Kit (Qiagen) according to the manufacturer's instructions. Mitochondrial DNA copy number was quantified using LIGHTCYCLER 480 SYBR® Green I Master (Roche Applied Science, Penzberg, Germany) using the following primers on a LIGHTCYCLER480 PCR machine (Roche Applied Science (Penzberg, Germany).
OSCs and oocytes treated with an NAD precursor (e.g. […] ie. “NMN”, see FIG. 38) had increased NAD^+, NAD^+:NADH, and mitochondrial DNA content (FIG. 40).

murine OSCs = assay: Mitochondrial DNA copy number in murine OSCs treated with NMN; format: cell-based
Description: FIG. 40 is a graph showing that nicotinamide mononucleotide increases mitochondrial DNA content in murine OSCs. Total cellular DNA was isolated from cells at the indicated time points using DNEASY® Blood & Tissue Kit (Qiagen, Venlo, The Netherlands) according to the manufacturer's instructions. Mt DNA copy number was quantified using LIGHTCYCLER®480 SYBR® Green I Master (Roche Applied Science, Penzberg, Germany) using a LIGHTCYCLER®480 PCR machine (Roche Applied Science, Penzberg, Germany). […]
For all experiments 25,000 cells were plated in each well of a 24 well plate. […] Mitochondrial DNA Copy number was analysed as follows. […] Mitochondrial DNA copy number was quantified using LIGHTCYCLER 480 SYBR® Green I Master (Roche Applied Science, Penzberg, Germany) using the following primers on a LIGHTCYCLER480 PCR machine (Roche Applied Science (Penzberg, Germany).

[2] = test system: cultured murine oogonial stem cells; assay: Spontaneous oocyte formation in cultured murine OSCs after NMN; format: cell-based; conditions: 25,000 OSCs per well of a 24-well plate
Experimental: FIG. 41 is a graph showing that nicotinamide mononucleotide increases spontaneous oocyte formation in cultured murine oogonial stem cells. For assessment of spontaneous oocyte formation, each well of a 24-well plate was seeded with 25,000 OSCs, and the number of oocytes formed and released into the medium per well was assessed the second day after seeding as well as the designated time points after NMN treatment.
Each well of a 24-well plate was seeded with 25,000 OSCs. The number of oocytes formed and released into the medium per well was assessed the second day after seeding as well as the designated time points after NMN treatment. […] NMN treatment is also expected to enhance the function of OCSsOSCs, oocytes, granulose cells, and blood vessels in the ovary.

young and old mice = assay: NAD+ levels in vivo after systemic NMN
Experimental: FIG. 42 is a graph showing that the NAD^+ precursor NMN raises NAD^+ levels in vivo in young and old mice. Cardiac [NAD^+] declines with age and is reversed by NMN treatment (n=3; 200 mg·kg·d. I.P. for 1 week).
(§1) NMN is delivered by intraperitoneal (I.P.) injection and raises NAD levels in brain, heart and skeletal muscle ˜30-100%. NMN increases mitochondrial function in C2C12 cells in a SIRT1-dependent manner (FIGS. 43C, D). sh Ct1=scrambled shRNA, Sh SIRT1=shRNA against SIRT1.
(§2) NMN and other compounds that increase NAD^+ levels are useful for increasing fertility or otherwise reducing or reversing infertility in a female subject. In one embodiment, such compounds are delivered to a subject orally, by intraperitoneal injection (IP), or subcutaneously to increase the probability that the subject will conceive and deliver healthy offspring. Systemic administration of the NAD^+ precursor NMN raised NAD^+ levels in vivo in young and old mice. Cardiac [NAD^+] declines with age. This decline in NAD^+ was reversed by NMN treatment (n=3; 200 mg·kg·d. I.P. for 1 week)(FIG. 42). […] In another embodiment, NMN and other compounds that increase NAD^+ levels are delivered to an OSC, oocyte, blasotcyst, sperm, or isolated mitochondria in vitro. For example, such compounds are delivered to a germ cell prior to, during or following IVF. In another embodiment, a compound of the invention is used to enhance the yield or preservation of mitochondria from an OSC, oocyte, blasotcyst, sperm, or isolated mitochondria in vitro.

[3] = test system: skeletal muscle of 24-month old mice; assay: Mitochondrial function in vivo after NMN; conditions: 1 week of treatment, I.P.
Description: as §1, §2

C2C12 cells = assay: Mitochondrial function in C2C12 cells with NMN (scrambled vs SIRT1 shRNA); format: cell-based; conditions: SIRT1-dependent manner
Description: as §1

[4] = listed as nicotinamide mononucleotides
[5] = listed as nicotinamide mononucleotide

| SMILES | mitochondrial parameters (OSCs from mice) | activity above the baseline (DMSO alone), scored as a positive result (OSCs from mice; 25 or 50 μM (berberine 5 μM and 25 μM)) | NAD^+ levels (Mouse OSCs) | NAD+/NADH [1] | cellular NAD^+ [1] | NAD+/NADH [1, 4] | cellular NAD^+ [1, 4] | mitochondrial DNA content (murine OSCs) | mitochondrial DNA content (murine OSCs; [5]) | spontaneous oocyte formation (rate of egg formation, EFA) [2] | spontaneous oocyte formation (rate of egg formation, EFA) [2, 5] | decline of cardiac [NAD^+] with age (young and old mice; 200 mg·kg·d. I.P. for 1 week, n=3) | raise of NAD levels in brain, heart and skeletal muscle (young and old mice; intraperitoneal (I.P.) injection) | NAD^+ levels in vivo (young and old mice; young and old mice, systemic administration) | mitochondrial function in vivo (decline in skeletal muscle of 24-month old mice) [3] | mitochondrial function in C2C12 cells (C2C12 cells) |
| --- | --- | --- | --- | --- | --- | --- | --- | --- | --- | --- | --- | --- | --- | --- | --- | --- |
| N#CC(C#N)=Cc1ccc(O)cc1 [tyrphostin 8, 2[(4-hydroxyphenyl)methylidene]propanedinitrile] | increase mitochondrial parameters in a beneficial way | activity above the baseline | raise | – | – | – | – | – | – | – | – | – | – | – | – | – |
| NC(=O)c1ccc[n+]([C@@H]2O[C@H](COP(=O)([O-])O)[C@@H](O)[C@H]2O)c1 [NMN, β-Nicotinamide mononucleotide] | – | – | – | increased | increased | raise | raise | increased | increases | increased | increases | reversed | 30-100% | raises | restorative effect; also recorded: completely reversed | increases |
